Experimental data as given in patent publication US20240101599A1, “PEPTIDE, CELL GROWTH PROMOTER, PROTEIN PRODUCTION PROMOTER, CULTURE MEDIUM, CELL GROWTH METHOD USING PEPTIDE, AND PROTEIN PRODUCTION METHOD USING PEPTIDE” (Maruhachi Muramatsu, Inc., priority 2020, published 2024).
Read-outs that look alike come from different tables or passages of the source. Peptide text beside a SMILES is read from it.

Key:
CHO DP-12 [1] = experiment: Cell growth test and protein production test when peptide was added to total synthesis medium; assay type: cell-based; conditions: for Viability, Average / Viable cell count, Average / Amount of protein produced, Average: average n=3; for Viability, Average / Viable cell count, Average / Amount of protein produced, Average / Viability, 1 / Viable cell count, 1 / Amount of protein produced, 1 / Viability, 2 / Viable cell count, 2 / Amount of protein produced, 2 / Viability, 3 / Viable cell count, 3 / Amount of protein produced, 3: ASF104 basal medium, 5 days; for Amount of protein produced, Average / Amount of protein produced, 1 / Amount of protein produced, 2 / Amount of protein produced, 3: ELISA; for Viability, 1 / Viable cell count, 1 / Amount of protein produced, 1: replicate 1; for Viability, 2 / Viable cell count, 2 / Amount of protein produced, 2: replicate 2; for Viability, 3 / Viable cell count, 3 / Amount of protein produced, 3: replicate 3
Protocol: A peptide having the sequence of Gly-Glu-Lys (GEK) was synthesized to prepare peptide solutions at the concentrations of 0 mM, 2.6 mM, 5.1 mM, 10 mM, 20.5 mM, and 41 mM, and an amount of 1/10 of the total culture medium volume was added to each well immediately before the cell culture test such that final concentrations were 0 mM, 0.26 mM, 0.51 mM, 1.0 mM, 2.05 mM, and 4.1 mM, respectively. In the present test, CHO DP-12 (ATCC, Cat. No. CRL-12445) acclimated to an ASF104 basal medium in which 200 nM of methotrexate and 2 μg/mL of insulin were blended in an ASF104 culture medium (Ajinomoto Co., Inc.), which is a total synthesis medium for CHO, was used. A cell suspension prepared such that a cell concentration was 4×10^4 cells/mL was seeded in a 24-well plate at 450 μL/well and cultured in an incubator at 37° C. and 5% CO2 for 24 hours. As a culture medium, an ASF104 basal medium in which 200 nM of methotrexate and 2 μg/mL of insulin were blended in an ASF104 culture medium (Ajinomoto Co., Inc.), which is a total synthesis medium for CHO, was used.
After 24 hours, 50 μL of the prepared peptide solution was added to each well to perform culture for 5 days. The cells were recovered after culture to count the viable cell count.
• ASF104 basal medium • GEK (0.26 mM)+ASF104 basal medium • GEK (0.51 mM)+ASF104 basal medium • GEK (1.0 mM)+ASF104 basal medium • GEK (2.05 mM)+ASF104 basal medium • GEK (4.1 mM)+ASF104 basal medium
100 μL of the culture medium supernatant was collected in a 1.5 mL tube to quantitatively determine the amount of protein produced. The supernatant was diluted to measure the amount of protein produced by ELISA.
In order to analyze the cells, the culture medium in each well was recovered in a 1.5 mL tube to be rinsed with 200 μL of PBS, and the rinsed liquid was also recovered in the same 1.5 mL tube. Thereafter, 100 μL of 0.25% trypsin/EDTA was added to perform incubation for 1 minute. 100 μL of a trypsin inhibitor was added to recover in the same 1.5 mL tube. After rinsing with 200 μL of PBS to recover the rinsed liquid in the same 1.5 mL tube, a centrifugation operation was performed. Suspension was performed in 100 μL of PBS to measure the viable cell count and the cell viability by a trypan blue staining method using a cell counter.
The above preparation, culture, and measurement were performed with n=3. Table 28 and FIG. 27 show the viable cell count in each peptide solution, Table 29 and FIG. 28 show the cell viability in each peptide solution, and Table 30 and FIG. 29 show the amount of protein produced.

CHO DP-12 [2] = conditions: 5 days; for Viable cell count: n=3; for Amount of protein produced: n=3, ELISA
Protocol: A cell suspension prepared such that CHO DP-12 (ATCC, Cat. No. CRL-12445) was at 2×10^4 cells/mL was seeded in a 24-well plate at 1×10^4 cells/well (500 μL) and cultured in an incubator at 37° C. and 5% CO2 for 24 hours. As a culture medium, a DMEM basal medium in which 200 nM of methotrexate and 2 μg/mL of insulin were blended in a DMEM culture medium (Gibco) containing 10% FBS was used.
After removing the culture medium from each well and washing with the DMEM basal medium (500 μL), each peptide solution (500 μL) was dispensed to each well (total 500 μL/well) to perform culture for 5 days.
After replacing each culture medium with an evaluation medium of the following test section, culture was performed in an incubator at 37° C. and 5% CO2 for 5 days.
• DMEM basal medium • AGK (1 mM)+DMEM basal medium • AGK (2 mM)+DMEM basal medium • Medium supplemented with vitamins and nucleic acids (DMEM basal medium+vitamin+nucleic acid) • AGK (1 mM)+medium supplemented with vitamins and nucleic acids • AGK (2 mM)+medium supplemented with vitamins and nucleic acids
After 5 days of culture, the total amount of the culture medium in each well of the 24-well plate was recovered, a centrifugation operation (5,000 rpm, for 5 minutes) was performed, and the supernatant was separately recovered to measure the amount of produced protein by ELISA.
The cells adhered to the wells after recovering the culture medium were detached by trypsin treatment and suspended again in the DMEM basal medium containing 10% FBS to measure the viable cell count and the viability by a trypan blue staining method using a cell counter.

[3] = 1 mM AGK + medium supplemented with vitamins and nucleic acids
[4] = 2 mM AGK + medium supplemented with vitamins and nucleic acids

NCCCC[C@H](NC(=O)[C@H](CCC(=O)O)NC(=O)CN)C(=O)O [GEK, Gly-Glu-Lys] (H-Gly-Glu-Lys-OH; N-terminus and C-terminus assumed)
Viability, Average (CHO DP-12 [1]; 0.26 mM GEK): 97.0%
Viable cell count, Average (CHO DP-12 [1]; 0.26 mM GEK): 1.6 ×10^6 cells/well
Amount of protein produced, Average (CHO DP-12 [1]; 0.26 mM GEK): 12.5 mg/L
Viability, 1 (CHO DP-12 [1]; 0.26 mM GEK): 96%
Viable cell count, 1 (CHO DP-12 [1]; 0.26 mM GEK): 1.6 ×10^6 cells/well
Amount of protein produced, 1 (CHO DP-12 [1]; 0.26 mM GEK): 12.2 mg/L
Viability, 2 (CHO DP-12 [1]; 0.26 mM GEK): 99%
Viable cell count, 2 (CHO DP-12 [1]; 0.26 mM GEK): 1.5 ×10^6 cells/well
Amount of protein produced, 2 (CHO DP-12 [1]; 0.26 mM GEK): 12.6 mg/L
Viability, 3 (CHO DP-12 [1]; 0.26 mM GEK): 96%
Viable cell count, 3 (CHO DP-12 [1]; 0.26 mM GEK): 1.6 ×10^6 cells/well
Amount of protein produced, 3 (CHO DP-12 [1]; 0.26 mM GEK): 12.7 mg/L
Viability, Average (CHO DP-12 [1]; 0.51 mM GEK): 96.7%
Viable cell count, Average (CHO DP-12 [1]; 0.51 mM GEK): 1.6 ×10^6 cells/well
Amount of protein produced, Average (CHO DP-12 [1]; 0.51 mM GEK): 12.9 mg/L
Viability, 1 (CHO DP-12 [1]; 0.51 mM GEK): 95%
Viable cell count, 1 (CHO DP-12 [1]; 0.51 mM GEK): 1.5 ×10^6 cells/well
Amount of protein produced, 1 (CHO DP-12 [1]; 0.51 mM GEK): 12.8 mg/L
Viability, 2 (CHO DP-12 [1]; 0.51 mM GEK): 98%
Viable cell count, 2 (CHO DP-12 [1]; 0.51 mM GEK): 1.7 ×10^6 cells/well
Amount of protein produced, 2 (CHO DP-12 [1]; 0.51 mM GEK): 13.2 mg/L
Viability, 3 (CHO DP-12 [1]; 0.51 mM GEK): 97%
Viable cell count, 3 (CHO DP-12 [1]; 0.51 mM GEK): 1.6 ×10^6 cells/well
Amount of protein produced, 3 (CHO DP-12 [1]; 0.51 mM GEK): 12.6 mg/L
Viability, Average (CHO DP-12 [1]; 1.0 mM GEK): 96.7%
Viable cell count, Average (CHO DP-12 [1]; 1.0 mM GEK): 1.5 ×10^6 cells/well
Amount of protein produced, Average (CHO DP-12 [1]; 1.0 mM GEK): 13.1 mg/L
Viability, 1 (CHO DP-12 [1]; 1.0 mM GEK): 97%
Viable cell count, 1 (CHO DP-12 [1]; 1.0 mM GEK): 1.3 ×10^6 cells/well
Amount of protein produced, 1 (CHO DP-12 [1]; 1.0 mM GEK): 12.4 mg/L
Viability, 2 (CHO DP-12 [1]; 1.0 mM GEK): 97%
Viable cell count, 2 (CHO DP-12 [1]; 1.0 mM GEK): 1.8 ×10^6 cells/well
Amount of protein produced, 2 (CHO DP-12 [1]; 1.0 mM GEK): 12.8 mg/L
Viability, 3 (CHO DP-12 [1]; 1.0 mM GEK): 96%
Viable cell count, 3 (CHO DP-12 [1]; 1.0 mM GEK): 1.4 ×10^6 cells/well
Amount of protein produced, 3 (CHO DP-12 [1]; 1.0 mM GEK): 14.1 mg/L
Viability, Average (CHO DP-12 [1]; 2.05 mM GEK): 96.7%
Viable cell count, Average (CHO DP-12 [1]; 2.05 mM GEK): 1.9 ×10^6 cells/well
Amount of protein produced, Average (CHO DP-12 [1]; 2.05 mM GEK): 17.0 mg/L
Viability, 1 (CHO DP-12 [1]; 2.05 mM GEK): 96%
Viable cell count, 1 (CHO DP-12 [1]; 2.05 mM GEK): 1.9 ×10^6 cells/well
Amount of protein produced, 1 (CHO DP-12 [1]; 2.05 mM GEK): 17.5 mg/L
Viability, 2 (CHO DP-12 [1]; 2.05 mM GEK): 96%
Viable cell count, 2 (CHO DP-12 [1]; 2.05 mM GEK): 2.2 ×10^6 cells/well
Amount of protein produced, 2 (CHO DP-12 [1]; 2.05 mM GEK): 17.7 mg/L
Viability, 3 (CHO DP-12 [1]; 2.05 mM GEK): 98%
Viable cell count, 3 (CHO DP-12 [1]; 2.05 mM GEK): 1.4 ×10^6 cells/well
Amount of protein produced, 3 (CHO DP-12 [1]; 2.05 mM GEK): 15.6 mg/L
Viability, Average (CHO DP-12 [1]; 4.1 mM GEK): 97.0%
Viable cell count, Average (CHO DP-12 [1]; 4.1 mM GEK): 1.7 ×10^6 cells/well
Amount of protein produced, Average (CHO DP-12 [1]; 4.1 mM GEK): 13.3 mg/L
Viability, 1 (CHO DP-12 [1]; 4.1 mM GEK): 97%
Viable cell count, 1 (CHO DP-12 [1]; 4.1 mM GEK): 1.8 ×10^6 cells/well
Amount of protein produced, 1 (CHO DP-12 [1]; 4.1 mM GEK): 13.9 mg/L
Viability, 2 (CHO DP-12 [1]; 4.1 mM GEK): 98%
Viable cell count, 2 (CHO DP-12 [1]; 4.1 mM GEK): 1.8 ×10^6 cells/well
Amount of protein produced, 2 (CHO DP-12 [1]; 4.1 mM GEK): 13.2 mg/L
Viability, 3 (CHO DP-12 [1]; 4.1 mM GEK): 96%
Viable cell count, 3 (CHO DP-12 [1]; 4.1 mM GEK): 1.5 ×10^6 cells/well
Amount of protein produced, 3 (CHO DP-12 [1]; 4.1 mM GEK): 12.8 mg/L
amount of protein produced as compared to the basal medium (total synthesis medium) (CHO DP-12 [1]; in words): the amount of protein produced also tended to increase
cell viability as compared to the basal medium (total synthesis medium) (CHO DP-12 [1]; in words): the cell viability was similarly high
viable cell count as compared to the basal medium (total synthesis medium) (CHO DP-12 [1]; in words): the viable cell count increased

C[C@H](N)C(=O)NCC(=O)N[C@@H](CCCCN)C(=O)O [AGK, Ala-Gly-Lys] (H-Ala-Gly-Lys-OH; N-terminus and C-terminus assumed)
Viable cell count (CHO DP-12 [2]; 1 mM AGK + DMEM basal medium): 11.97 ×10^4cells/well
Amount of protein produced (CHO DP-12 [2]; 1 mM AGK + DMEM basal medium): 7.5 mg/L
Viable cell count (CHO DP-12 [2]; [3]): 34.65 ×10^4cells/well
Amount of protein produced (CHO DP-12 [2]; [3]): 15.74 mg/L
Viable cell count (CHO DP-12 [2]; 2 mM AGK + DMEM basal medium): 11.73 ×10^4cells/well
Amount of protein produced (CHO DP-12 [2]; 2 mM AGK + DMEM basal medium): 7.4 mg/L
Viable cell count (CHO DP-12 [2]; [4]): 47.07 ×10^4cells/well
Amount of protein produced (CHO DP-12 [2]; [4]): 14.34 mg/L
